From ChEMBL document CHEMBL1777806, “Three new cytotoxic aryltetralin lignans from Sinopodophyllum emodi” (Bioorg Med Chem Lett, 2011) come the findings set out here.

One assay concerns KB. Nature of the assay: Cytotoxicity against human KB cells after 72 hrs by MTT assay. It is filed as functional, cell-based.
Another assay concerns HeLa. Kind of assay: Cytotoxicity against human HeLa cells after 72 hrs by MTT assay. The assay is classed as functional, cell-based. On the technique in general: Tetrazolium dyes change colour on reduction, which living cells bring about.

The structures appear in SMILES notation.

For the compound `COc1cc([C@@H]2c3cc4c(cc3[C@H](O[C@@H]3O[C@H](CO[C@@H]5O[C@H](CO)[C@@H](O)[C@H](O)[C@H]5O)[C@@H](O)[C@H](O)[C@H]3O)[C@H]3COC(=O)[C@@H]23)OCO4)cc(OC)c1OC`, the 50% inhibitory concentration (IC50) with KB and in the assay on HeLa was > 100 µM each time.

For the compound `COc1cc(-c2c3c(c(O)c4cc5c(cc24)OCO5)COC3=O)cc(OC)c1O`, the IC50 – broadly, the concentration that gives 50% inhibition – is 84.7 µM in the assay with KB and > 100 µM in the assay on HeLa.

With `COc1cc([C@@H]2c3cc4c(cc3[C@H](O)[C@H]3COC(=O)[C@H]23)OCO4)cc(OC)c1O`, the IC50 in the assay with KB stood at 0.064 µM; with HeLa, 0.08 µM.

As for `COc1cc([C@@H]2c3cc(O)c(O)cc3[C@H](O)[C@H]3COC(=O)[C@H]23)cc(OC)c1O`, the 50% inhibitory concentration (IC50) in the assay on KB was > 100 µM; in the assay on HeLa it was 79.6 µM.

Regarding `COc1cc([C@@H]2c3cc4c(cc3[C@H](O)[C@H]3COC(=O)[C@H]23)OCO4)cc(OC)c1OC` [PODOFILOX], the figures for the IC50 in the assay with KB and in the assay on HeLa were 0.056 µM and 0.069 µM, respectively.

For `COc1cc([C@@H]2c3cc4c(cc3[C@H](O[C@@H]3O[C@H](CO)[C@@H](O)[C@H](O)[C@H]3O)[C@H]3COC(=O)[C@H]23)OCO4)cc(OC)c1OC`, the IC50 in the assay with KB came out at 9.25 µM; in the assay with HeLa, 6.65 µM.

Regarding `COc1cc([C@@H]2c3cc4c(cc3C[C@H]3COC(=O)[C@@H]32)OCO4)cc(OC)c1OC` [DESOXYPODOPHYLLOTOXIN], the IC50 amounted to 0.0089 µM in the assay with KB and 0.0069 µM in the assay with HeLa.

For `COc1cc([C@@H]2c3cc4c(cc3[C@H](O[C@@H]3O[C@H](COC(C)=O)[C@@H](O)[C@H](O)[C@H]3O)[C@H]3COC(=O)[C@H]23)OCO4)cc(OC)c1OC` [SINOLIGNAN A], the IC50 in the assay on KB was found to be 8.76 µM; in the assay with HeLa, 3.77 µM.

With `COc1cc([C@@H]2c3cc(O)c(O)cc3[C@H](O)[C@H]3COC(=O)[C@H]23)cc(OC)c1OC` [6,7-O,O-DEMETHYLENEPODOPHYLLOTOXIN], the IC50 in the assay with KB and with HeLa was > 100 µM throughout.

Consider `COc1cc([C@@H]2c3cc4c(cc3C[C@H]3COC(=O)[C@@H]32)OCO4)cc(OC)c1O[C@@H]1O[C@H](CO)[C@@H](O)[C@H](O)[C@H]1O`, for which the IC50 worked out at 2.09 µM with KB and 0.87 µM with HeLa.

Turning to `COc1cc([C@@H]2c3cc4c(cc3[C@H](O[C@@H]3O[C@H](CO[C@@H]5O[C@H](CO)[C@@H](O)[C@H](O)[C@H]5O)[C@@H](O)[C@H](O)[C@H]3O)[C@H]3COC(=O)[C@@H]23)OCO4)cc(OC)c1O` [SINOLIGNAN B], the IC50 in the assay with KB and with HeLa was > 100 µM throughout.

Turning to `COc1cc([C@@H]2c3cc4c(cc3[C@H](O)[C@H]3COC(=O)[C@H]23)OCO4)cc(OC)c1OC(C)=O`, the IC50 in the assay with KB was 0.05 µM; in the assay with HeLa it was 0.076 µM.

For `COc1cc([C@@H]2c3cc4c(cc3C[C@H]3COC(=O)[C@@H]32)OCO4)cc(OC)c1O` [4'-DEMETHYLDEOXYPODOPHYLLOTOXIN], the IC50 with KB was 0.0078 µM; in the assay with HeLa, 0.074 µM.

In the case of `COc1cc([C@@H]2c3cc4c(cc3[C@@H](O[C@@H]3O[C@@H]5CO[C@@H](C)O[C@H]5[C@H](O)[C@H]3O)[C@H]3COC(=O)[C@H]23)OCO4)cc(OC)c1O` [ETOPOSIDE], the IC50 in the assay on KB is 10 µM; with HeLa it was 4 µM.

Turning to `COc1cc(-c2c3c(c(O)c4cc5c(cc24)OCO5)COC3=O)cc(OC)c1OC` [DEHYDROPODOPHYLLOTOXIN], the IC50 turned out to be 9.79 µM in the assay on KB and 8.28 µM with HeLa.

In the case of `COc1cc([C@@H]2c3cc4c(cc3[C@H](O[C@@H]3O[C@H](CO)[C@@H](O)[C@H](O)[C@H]3O)[C@H]3COC(=O)[C@H]23)OCO4)cc(OC)c1O`, the figures for the IC50 in the assay on KB and in the assay on HeLa were 9.51 µM and 5.33 µM, respectively.

With `COc1cc([C@@H]2c3cc4c(cc3C(=O)[C@@H]3COC(=O)[C@H]23)OCO4)cc(OC)c1OC` [ISOPICROPODOPHYLLONE], the IC50 with KB is > 100 µM; with HeLa it was 32.1 µM.

`COc1cc([C@@H]2c3cc4c(cc3[C@@H](O[C@@H]3O[C@H](CO)[C@@H](O)[C@H](O)[C@H]3O)[C@H]3COC(=O)[C@H]23)OCO4)cc(OC)c1O`: the IC50 with KB is < 0.01 µM; in the assay on HeLa, 0.048 µM.
